The text below walks through data of ChEMBL document CHEMBL1201862, “PubChem BioAssay data set” (2004).

For assay [1], the target named is T1, Apoptotic protease-activating factor 1 (Homo sapiens, UniProt O14727).
T1 sequence (O14727 whole entry): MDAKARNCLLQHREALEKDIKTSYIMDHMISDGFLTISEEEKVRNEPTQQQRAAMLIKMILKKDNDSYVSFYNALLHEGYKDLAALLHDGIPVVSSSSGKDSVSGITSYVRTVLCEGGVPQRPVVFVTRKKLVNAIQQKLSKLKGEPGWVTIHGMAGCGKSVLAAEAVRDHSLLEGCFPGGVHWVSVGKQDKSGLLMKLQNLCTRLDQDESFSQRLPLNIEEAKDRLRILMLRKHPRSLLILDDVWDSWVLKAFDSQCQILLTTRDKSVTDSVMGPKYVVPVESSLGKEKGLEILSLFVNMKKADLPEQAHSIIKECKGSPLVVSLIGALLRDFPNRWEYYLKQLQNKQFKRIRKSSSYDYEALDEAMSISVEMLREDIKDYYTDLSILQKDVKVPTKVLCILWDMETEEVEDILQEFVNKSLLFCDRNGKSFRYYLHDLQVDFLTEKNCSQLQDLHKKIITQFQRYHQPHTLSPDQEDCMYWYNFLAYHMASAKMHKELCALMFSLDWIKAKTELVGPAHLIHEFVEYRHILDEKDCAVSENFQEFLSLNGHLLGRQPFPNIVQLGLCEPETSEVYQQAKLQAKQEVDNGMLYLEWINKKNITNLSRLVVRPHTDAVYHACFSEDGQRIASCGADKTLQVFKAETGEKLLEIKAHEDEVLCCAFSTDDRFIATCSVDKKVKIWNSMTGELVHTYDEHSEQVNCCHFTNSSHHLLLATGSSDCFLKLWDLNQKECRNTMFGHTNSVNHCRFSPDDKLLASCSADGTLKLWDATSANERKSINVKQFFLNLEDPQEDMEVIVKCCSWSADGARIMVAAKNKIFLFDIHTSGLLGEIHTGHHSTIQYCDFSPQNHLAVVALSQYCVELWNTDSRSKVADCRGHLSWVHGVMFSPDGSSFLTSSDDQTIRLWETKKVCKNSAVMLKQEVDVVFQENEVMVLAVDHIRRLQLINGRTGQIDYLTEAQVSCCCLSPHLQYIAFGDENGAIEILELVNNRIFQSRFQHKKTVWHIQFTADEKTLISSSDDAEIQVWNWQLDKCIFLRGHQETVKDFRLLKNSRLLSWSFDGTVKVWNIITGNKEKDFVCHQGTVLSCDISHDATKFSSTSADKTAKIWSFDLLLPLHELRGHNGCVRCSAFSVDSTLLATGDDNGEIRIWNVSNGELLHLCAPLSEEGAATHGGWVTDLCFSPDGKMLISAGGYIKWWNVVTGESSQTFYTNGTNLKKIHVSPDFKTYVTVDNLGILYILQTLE
Type of assay: functional.

A further assay concerns the target T2, Caspase-6 (Homo sapiens, UniProt P55212).
T2 sequence (P55212 whole entry): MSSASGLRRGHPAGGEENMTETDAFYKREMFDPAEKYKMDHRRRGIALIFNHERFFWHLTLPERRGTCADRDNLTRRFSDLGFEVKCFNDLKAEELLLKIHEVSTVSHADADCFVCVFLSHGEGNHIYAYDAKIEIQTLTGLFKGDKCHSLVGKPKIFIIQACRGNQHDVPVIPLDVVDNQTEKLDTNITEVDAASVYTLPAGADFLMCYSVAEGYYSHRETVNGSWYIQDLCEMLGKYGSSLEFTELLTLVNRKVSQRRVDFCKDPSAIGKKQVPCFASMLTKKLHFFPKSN
The assay is described as follows: human caspase-6 inhibitors, dose response, biochemical, VEID-R110 fluorescence, cherry-pick (AID 720632).

For assay [2], the target named is T3, Dual specificity protein phosphatase 6 (Rattus norvegicus, UniProt Q64346).
T3 sequence (Q64346 whole entry): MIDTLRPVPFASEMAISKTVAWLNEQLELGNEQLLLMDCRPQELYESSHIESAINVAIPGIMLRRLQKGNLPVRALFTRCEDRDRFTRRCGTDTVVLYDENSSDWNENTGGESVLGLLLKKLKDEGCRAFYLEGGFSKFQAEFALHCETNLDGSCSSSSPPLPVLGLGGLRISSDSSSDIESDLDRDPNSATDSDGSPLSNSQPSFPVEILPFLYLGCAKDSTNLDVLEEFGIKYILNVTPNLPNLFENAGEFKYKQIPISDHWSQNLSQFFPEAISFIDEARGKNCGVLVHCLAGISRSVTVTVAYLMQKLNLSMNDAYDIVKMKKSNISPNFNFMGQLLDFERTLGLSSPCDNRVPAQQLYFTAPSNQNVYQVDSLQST
In words: MKP-3 phosphatase inhibitors, primary screen, biochemical, rat enzyme, in vitro (AID 425).

Assay [3] deals with Serine/threonine-protein phosphatase PP1-alpha catalytic subunit (Homo sapiens, UniProt P62136). In words: PP1 phosphatase inhibitors, dose response, biochemical, fluorescence (AID 2394).
In assay [4] the target is T4, Tyrosine-protein phosphatase non-receptor type 7 (Homo sapiens, UniProt P35236).
T4 sequence (P35236 whole entry): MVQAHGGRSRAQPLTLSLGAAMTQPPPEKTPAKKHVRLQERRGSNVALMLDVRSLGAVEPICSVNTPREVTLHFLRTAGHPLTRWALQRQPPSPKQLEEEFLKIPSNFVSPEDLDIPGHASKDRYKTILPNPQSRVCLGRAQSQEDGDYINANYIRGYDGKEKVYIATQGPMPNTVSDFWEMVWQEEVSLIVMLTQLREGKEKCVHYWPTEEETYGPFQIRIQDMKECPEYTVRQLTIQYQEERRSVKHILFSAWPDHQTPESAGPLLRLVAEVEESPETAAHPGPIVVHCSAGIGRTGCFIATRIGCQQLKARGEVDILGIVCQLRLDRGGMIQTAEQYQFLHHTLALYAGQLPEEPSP
In words: HTS HePTP Fluorescent Assay using OMFP substrate for In Vitro dose response studies. [Related pubchem assays (depositor defined):AID1059, AID1077, AID1784, AID2068, AID2085, AID435032, AID521]. Type of assay: functional.

The structures appear in SMILES notation. Calls of active or inactive are those of the source.

Chain of Serine/threonine-protein phosphatase PP1-alpha catalytic subunit (P62136 whole entry): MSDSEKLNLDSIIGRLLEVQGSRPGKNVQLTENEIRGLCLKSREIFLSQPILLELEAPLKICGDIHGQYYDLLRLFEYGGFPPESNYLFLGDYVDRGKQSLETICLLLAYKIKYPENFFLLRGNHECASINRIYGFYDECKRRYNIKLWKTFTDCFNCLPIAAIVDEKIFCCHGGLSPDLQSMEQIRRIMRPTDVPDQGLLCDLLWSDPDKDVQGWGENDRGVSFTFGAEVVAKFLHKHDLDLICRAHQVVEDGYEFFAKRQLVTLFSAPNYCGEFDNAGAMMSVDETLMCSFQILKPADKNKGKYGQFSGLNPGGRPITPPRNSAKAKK

By IC50 is commonly meant the concentration that gives 50% inhibition. Broadly, the AC50 is the concentration at which the activity in the assay is half-maximal. As for `C=CCn1c(NC(=O)c2ccccc2Cl)c(C#N)c2nc3ccccc3nc21`, the values for the half-inhibitory concentration (IC50) in assay [1], in assay [2] and in assay [3] were 13.7 µM (active), > 100 µM (not active) and 43.6 µM (not active), respectively. In addition, the AC50 at Caspase-6 was 10.4 µM (active).
For `CCOC(=O)c1ccc(Nc2cc3ccccc3c(O)n2)cc1`, the IC50 in assay [1] is 8.78 µM (active). Besides, on Caspase-6, the AC50 was 15.7 µM (active).
For the molecule `CCOC(=O)c1sc2nc3c(SCC(=O)O)cc(C(=O)c4ccccc4O)cn3c(=O)c2c1C`, the IC50 in assay [4] is > 99 µM (inactive); in assay [2], 103 µM (not active).
